Measured values: ChEMBL document CHEMBL3425423, “Hydroxy tricyclic 1,5-naphthyridinone oxabicyclooctane-linked novel bacterial topoisomerase inhibitors as broad-spectrum antibacterial agents-SAR of RHS moiety (Part-3)” (Bioorg Med Chem Lett, 2015)
Converted amounts (≈) assume the structure as drawn.

Experiments:
Type in all cases: functional
Staphylococcus aureus [1] = experiment: Ratio of MIC for quinolone-resistant Staphylococcus aureus MS5935 to MIC for quinolone-sensitive Staphylococcus aureus
Escherichia coli = experiment: Antibacterial activity against Escherichia coli ATCC 25922; details: Escherichia coli, ATCC 25922; read-out: MIC
Enterococcus faecium = experiment: Antibacterial activity against VanA-type vancomycin-resistant Enterococcus faecium A2373; details: Enterococcus faecium, A2373; read-out: MIC
Staphylococcus aureus [2] = experiment: Antibacterial activity against Staphylococcus aureus Smith
Pseudomonas aeruginosa = experiment: Antibacterial activity against Pseudomonas aeruginosa PAO1; details: Pseudomonas aeruginosa, PAO1; read-out: MIC
Acinetobacter baumannii = experiment: Antibacterial activity against Acinetobacter baumannii IID876; details: Acinetobacter baumannii, IID876; read-out: MIC
Enterococcus faecalis = experiment: Antibacterial activity against Enterococcus faecalis ATCC 29212; details: Enterococcus faecalis, ATCC 29212; read-out: MIC
Streptococcus pneumoniae = experiment: Antibacterial activity against Streptococcus pneumoniae IID554; details: Streptococcus pneumoniae, IID554; read-out: MIC
Moraxella catarrhalis = experiment: Antibacterial activity against Moraxella catarrhalis ATCC 25238; details: Moraxella catarrhalis, ATCC 25238; read-out: MIC
[3] = Staphylococcus aureus, Smith, read-out: MIC

| Compound | Ratio (Staphylococcus aureus [1]) | MIC (Escherichia coli) [µg/mL] | MIC (Enterococcus faecium) [µg/mL] | MIC (Staphylococcus aureus [2]; [3]) [µg/mL] | MIC (Pseudomonas aeruginosa) [µg/mL] | MIC (Acinetobacter baumannii) [µg/mL] | MIC (Enterococcus faecalis) [µg/mL] | MIC (Streptococcus pneumoniae) [µg/mL] | MIC (Moraxella catarrhalis) [µg/mL] | MIC (Staphylococcus aureus [2]) [µg/mL] |
| --- | --- | --- | --- | --- | --- | --- | --- | --- | --- | --- |
| O=c1cnc2ccc(CNC34CCC(C[C@]5(O)Cn6c(=O)ccc7ncc(F)c5c76)(CC3)OC4)nc2[nH]1 | <4 | 32 (≈ 63.4 µM) | 32 (≈ 63.4 µM) | 8 (≈ 15.9 µM) | 32 (≈ 63.4 µM) | 32 (≈ 63.4 µM) | 32 (≈ 63.4 µM) | 16 (≈ 31.7 µM) | – | – |
| O=c1ccc2ncc(F)c3c2n1C[C@@]3(O)CC12CCC(NCCCc3cc(F)ccc3F)(CC1)CO2 | <4 | 16 (≈ 32 µM) | 32 (≈ 64.1 µM) | 0.5 (≈ 1 µM) | 32 (≈ 64.1 µM) | 2 (≈ 4 µM) | 16 (≈ 32 µM) | 1 (≈ 2 µM) | – | – |
| O=c1ccc2ncc(F)c3c2n1C[C@@]3(O)CC12CCC(NC/C(F)=C/c3cc(F)ccc3F)(CC1)CO2 | <4 | 16 (≈ 31 µM) | 16 (≈ 31 µM) | 4 (≈ 7.76 µM) | 16 (≈ 31 µM) | 16 (≈ 31 µM) | 16 (≈ 31 µM) | 8 (≈ 15.5 µM) | – | – |
| O=c1ccc2ncc(F)c3c2n1C[C@@]3(O)CC12CCC(NCc3cc4c(cc3F)OCCO4)(CC1)CO2 | – | 32 (≈ 62.6 µM) | 8 (≈ 15.6 µM) | 0.25 (≈ 0.489 µM) | 32 (≈ 62.6 µM) | 8 (≈ 15.6 µM) | 2 (≈ 3.91 µM) | 0.5 (≈ 0.977 µM) | 8 (≈ 15.6 µM) | – |
| O=C1CSc2ccc(CNC34CCC(C[C@]5(O)Cn6c(=O)ccc7ncc(F)c5c76)(CC3)OC4)nc2N1 | – | 4 (≈ 7.64 µM) | 8 (≈ 15.3 µM) | 0.25 (≈ 0.477 µM) | 16 (≈ 30.6 µM) | 2 (≈ 3.82 µM) | 2 (≈ 3.82 µM) | 0.5 (≈ 0.955 µM) | – | – |
| O=c1ccc2ncc(F)c3c2n1C[C@@]3(O)CC12CCC(NCc3ccc4c(c3)OCO4)(CC1)CO2 | – | 32 (≈ 66.7 µM) | 16 (≈ 33.4 µM) | 0.5 (≈ 1.04 µM) | 32 (≈ 66.7 µM) | 4 (≈ 8.34 µM) | 4 (≈ 8.34 µM) | 0.5 (≈ 1.04 µM) | 4 (≈ 8.34 µM) | – |
| O=C1COc2ccc(C(=O)NC34CCC(C[C@]5(O)Cn6c(=O)ccc7ncc(F)c5c76)(CC3)OC4)nc2N1 | <4 | 32 (≈ 61.4 µM) | 16 (≈ 30.7 µM) | 1 (≈ 1.92 µM) | 32 (≈ 61.4 µM) | 16 (≈ 30.7 µM) | 8 (≈ 15.3 µM) | 4 (≈ 7.67 µM) | – | 0.25 (≈ 0.479 µM) |
| O=c1ccc2ncc(F)c3c2n1C[C@@]3(O)CC12CCC(NCc3ccc4c(c3)OCCO4)(CC1)CO2 | – | 16 (≈ 32.4 µM) | 4 (≈ 8.1 µM) | 0.12 (≈ 0.243 µM) | 32 (≈ 64.8 µM) | 4 (≈ 8.1 µM) | 2 (≈ 4.05 µM) | 0.25 (≈ 0.507 µM) | 0.5 (≈ 1.01 µM) | – |
| O=c1ccc2ncc(F)c3c2n1C[C@@]3(O)CC12CCC(NC/C(F)=C\c3cc(F)ccc3F)(CC1)CO2 | <4 | 16 (≈ 31 µM) | 16 (≈ 31 µM) | 0.25 (≈ 0.485 µM) | 16 (≈ 31 µM) | 16 (≈ 31 µM) | 4 (≈ 7.76 µM) | 1 (≈ 1.94 µM) | – | – |
| O=c1ccc2ncc(F)c3c2n1C[C@@]3(O)CC12CCC(NC/C=C/c3ccc(F)cc3)(CC1)CO2 | – | 64 (≈ 133 µM) | 32 (≈ 66.7 µM) | 0.5 (≈ 1.04 µM) | 64 (≈ 133 µM) | 32 (≈ 66.7 µM) | 16 (≈ 33.4 µM) | 4 (≈ 8.34 µM) | – | – |
| Cn1c(=O)c(CNC23CCC(C[C@]4(O)Cn5c(=O)ccc6ncc(F)c4c65)(CC2)OC3)cc2ccccc21 | <4 | 64 (≈ 124 µM) | 64 (≈ 124 µM) | 16 (≈ 31 µM) | 64 (≈ 124 µM) | 64 (≈ 124 µM) | 64 (≈ 124 µM) | 8 (≈ 15.5 µM) | – | – |
| O=c1[nH]c2c(F)ccc(F)c2cc1CNC12CCC(C[C@]3(O)Cn4c(=O)ccc5ncc(F)c3c54)(CC1)OC2 | <4 | 64 (≈ 119 µM) | 64 (≈ 119 µM) | 2 (≈ 3.71 µM) | 64 (≈ 119 µM) | 64 (≈ 119 µM) | 32 (≈ 59.4 µM) | 2 (≈ 3.71 µM) | – | – |
| CN1CCOc2nc(CNC34CCC(C[C@]5(O)Cn6c(=O)ccc7ncc(F)c5c76)(CC3)OC4)ccc21 | <4 | 16 (≈ 31.5 µM) | 16 (≈ 31.5 µM) | 2 (≈ 3.94 µM) | 16 (≈ 31.5 µM) | 16 (≈ 31.5 µM) | 16 (≈ 31.5 µM) | 4 (≈ 7.88 µM) | – | – |
| O=c1ccc2ncc(F)c3c2n1C[C@@]3(O)CC12CCC(NCc3ccc4c(n3)OCCO4)(CC1)CO2 | – | 32 (≈ 64.7 µM) | 32 (≈ 64.7 µM) | 2 (≈ 4.04 µM) | 32 (≈ 64.7 µM) | 32 (≈ 64.7 µM) | 8 (≈ 16.2 µM) | 2 (≈ 4.04 µM) | 32 (≈ 64.7 µM) | – |
| COc1ccc2nc(CNC34CCC(C[C@]5(O)Cn6c(=O)ccc7ncc(F)c5c76)(CC3)OC4)c(F)cc2n1 | <4 | 16 (≈ 29.9 µM) | 16 (≈ 29.9 µM) | 16 (≈ 29.9 µM) | 16 (≈ 29.9 µM) | 16 (≈ 29.9 µM) | 16 (≈ 29.9 µM) | 16 (≈ 29.9 µM) | – | – |
| O=c1ccc2ncc(F)c3c2n1C[C@@]3(O)CC12CCC(NC/C=C/c3ccccn3)(CC1)CO2 | <4 | 64 (≈ 138 µM) | 64 (≈ 138 µM) | 1 (≈ 2.16 µM) | 64 (≈ 138 µM) | 32 (≈ 69.2 µM) | 32 (≈ 69.2 µM) | 4 (≈ 8.65 µM) | – | – |
| O=c1ccc2ncc(F)c3c2n1C[C@@]3(O)CC12CCC(NC/C=C/c3c(F)cccc3F)(CC1)CO2 | <4 | 16 (≈ 32.2 µM) | 8 (≈ 16.1 µM) | 0.063 (≈ 0.127 µM) | 32 (≈ 64.3 µM) | 2 (≈ 4.02 µM) | 4 (≈ 8.04 µM) | 0.25 (≈ 0.502 µM) | – | – |
| O=C1COc2ccc(CNC34CCC(C[C@]5(O)Cn6c(=O)ccc7ncc(F)c5c76)(CC3)OC4)cc2N1 | – | 6 (≈ 11.8 µM) | 16 (≈ 31.6 µM) | 1.5 (≈ 2.96 µM) | 16 (≈ 31.6 µM) | 8 (≈ 15.8 µM) | 4 (≈ 7.9 µM) | 1 (≈ 1.97 µM) | – | – |
| O=c1ccc2ncc(F)c3c2n1C[C@@]3(O)CC12CCC(NC/C=C/c3cc(F)ccc3F)(CC1)CO2 | <4 | 4 (≈ 8.04 µM) | 8 (≈ 16.1 µM) | 0.063 (≈ 0.127 µM) | 8 (≈ 16.1 µM) | 0.25 (≈ 0.502 µM) | 4 (≈ 8.04 µM) | 0.25 (≈ 0.502 µM) | – | – |
| O=c1ccc2ncc(F)c3c2n1C[C@@]3(O)CC12CCC(NCc3ccc4c(n3)NCCO4)(CC1)CO2 | – | 32 (≈ 64.8 µM) | 16 (≈ 32.4 µM) | 2 (≈ 4.05 µM) | 32 (≈ 64.8 µM) | 8 (≈ 16.2 µM) | 8 (≈ 16.2 µM) | 1 (≈ 2.03 µM) | 4 (≈ 8.1 µM) | – |
| O=c1ccc2ncc(F)c3c2n1C[C@@]3(O)CC12CCC(NCc3ncc4c(c3Cl)OCCO4)(CC1)CO2 | – | 32 (≈ 60.5 µM) | 32 (≈ 60.5 µM) | 2 (≈ 3.78 µM) | 32 (≈ 60.5 µM) | 32 (≈ 60.5 µM) | 8 (≈ 15.1 µM) | 1 (≈ 1.89 µM) | 32 (≈ 60.5 µM) | – |
| O=c1ccc2ncc(F)c3c2n1C[C@@]3(O)CC12CCC(NCc3cc(Cl)c4c(c3Cl)OCCO4)(CC1)CO2 | – | 32 (≈ 56.9 µM) | 16 (≈ 28.4 µM) | 0.5 (≈ 0.889 µM) | 32 (≈ 56.9 µM) | 32 (≈ 56.9 µM) | 4 (≈ 7.11 µM) | 0.25 (≈ 0.445 µM) | 2 (≈ 3.56 µM) | – |
| O=C1COc2cnc(CNC34CCC(C[C@]5(O)Cn6c(=O)ccc7ncc(F)c5c76)(CC3)OC4)cc2N1 | – | 16 (≈ 31.5 µM) | 32 (≈ 63.1 µM) | 4 (≈ 7.88 µM) | 32 (≈ 63.1 µM) | 32 (≈ 63.1 µM) | 8 (≈ 15.8 µM) | 4 (≈ 7.88 µM) | – | – |
| O=c1ccc2ncc(F)c3c2n1C[C@@]3(O)CC12CCC(NC/C=C/c3ccccc3)(CC1)CO2 | – | 32 (≈ 69.3 µM) | 8 (≈ 17.3 µM) | 0.125 (≈ 0.271 µM) | 64 (≈ 139 µM) | 4 (≈ 8.67 µM) | 4 (≈ 8.67 µM) | 0.5 (≈ 1.08 µM) | – | – |
| O=c1ccc2ncc(F)c3c2n1C[C@@]3(O)CC12CCC(NCc3ccc4c(c3)OC(F)(F)O4)(CC1)CO2 | – | 32 (≈ 62.1 µM) | 32 (≈ 62.1 µM) | 0.25 (≈ 0.485 µM) | 32 (≈ 62.1 µM) | 32 (≈ 62.1 µM) | 8 (≈ 15.5 µM) | 1 (≈ 1.94 µM) | 4 (≈ 7.76 µM) | – |
